Source: patent publication US6583150B1, “Pharmaceutical composition based on polyaromatic compounds” (Laboratorie L. Lafon, priority 1999, dated 2003)

Assays:
[1] = Determination of the maximum tolerated dose (MTD); format: in vivo; conditions: mouse, in vivo, ip; single intraperitoneal administration, survival over 14 days, B6D2F1/Jico mice
Procedure: The evaluation of the maximum tolerated dose was carried out on 4- to 6-week-old B6D2F1/Jico mice. […] The value of the MTD (expressed in mg/kg) is determined from observing the survival rate of the animals over a period of 14 days after a single administration of the product under consideration. The change in the weight of the animals is also monitored over this period.

U-87MG = assay: MTT cytotoxicity test, U-87MG; format: cell-based; conditions: Homo sapiens, U-87MG glioblastoma, 72 hours, read-out: concentrations flanking the IC50
Procedure: (§1) The influence of the compounds of formulae I and II on neoplastic cells was evaluated using the MTT calorimetric test. The principle of the MTT test is based on the mitochondrial reduction by metabolically active live cells of the yellow-colored product MTT (3-(4,5-dimethylthiazol-2-yl)-2,5-diphenyltetrazolium bromide) to a blue-colored product, formazan. The amount of formazan thus obtained is directly proportional to the amount of live cells present in the culture well(s). This amount of formazan is measured by spectrophotometry.
(§2) The cell lines are maintained in monolayer culture at 37° C. in stoppered culture dishes containing 25 MM HEPES MEM (Minimum Essential Medium) base medium. This medium, which is suitable for growing a range of varied diploid or primary mammalian cells, is then supplemented: […]
(§3) with a an amount of 5% FCS (Fetal Calf Serum) decomplemented at 56° C. for 1 hour, with 0.6 mg/mL of L-glutamine, with 200 IU/mL of penicillin, with […] of streptomycin, with 0.1 mg/mL of gentamicin.
(§4) The 12 human cancer cell lines used were obtained from the American Type Culture Collection (ATCC, Rockville, Md., USA). These 12 cell lines are:
U-373MG (code ATCC: HTB-17) and U-87MG (code ATCC: HTB-14) which are two glioblastomas, Experimentally: 100 μl of a cell suspension containing 200 000 to 50 000 (depending on the cell type used) cells/mL of culture medium are inoculated in flat-bottomed 96-well multi-well plates and are incubated at 37° C. under an atmosphere comprising 5% CO2 and 70% humidity. […] The intensity of the resulting blue coloration, and thus of the conversion of the yellow MTT product into blue formazan by the cells that are still alive at the end of the experiment is quantified by spectrophotometry using a DYNATECH IMMUNOASSAY SYSTEM machine at wavelengths of 570 nm and 630 nm corresponding, respectively, to the maximum absorption wavelengths of formazan and to the background noise. […]

[2] = test system: 12 human tumor lines: U-87MG, U-373MG, SW 1088, T24, J82, HCT-15, LoVo, MCF7, T-47D, A549, A-427 and PC-3; assay: MTT cytotoxicity test, panel of the 12 human tumor lines; format: cell-based; conditions: Homo sapiens, read-out: average IC50
Procedure: as §1, §2, §3, §4
U-373MG (code ATCC: HTB-17) and U-87MG (code ATCC: HTB-14) which are two glioblastomas, SW1088 (code ATCC: HTB-12) which is an astrocytoma, A549 (code ATCC: CCL-185) and A-427 (code ATCC: HTB-53) which are two non-small-cell lung cancers, HCT-15 (code ATCC: CCL-225) and LoVo (code ATCC: CCL-229) which are two colorectal cancers, T-47D (code ATCC: HTB-133) and MCF7 (code ATCC: HTB-22) which are two breast cancers, J82 (code ATCC: HTB-1) and T24 (code ATCC: HTB-4) which are two bladder cancers, PC-3 (code ATCC: CRL-1435) which is a prostate cancer.
Experimentally: 100 μl of a cell suspension containing 200 000 to 50 000 (depending on the cell type used) cells/mL of culture medium are inoculated in flat-bottomed 96-well multi-well plates and are incubated at 37° C. under an atmosphere comprising 5% CO2 and 70% humidity. After incubating for 24 hours, the culture medium is replaced with 100 μl of fresh medium containing either the various test compounds at concentrations ranging from 10^−5 to 10^−10 M or the solvent used to dissolve the test products (control condition). After incubating for 72 hours under the above conditions, the culture medium is replaced with 100 μl of a yellowish solution of MTT dissolved at a rate of 1 mg/mL in RPMI 1640. The microplates are reincubated for 3 hours at 37° C. and then centrifuged for 10 minutes at 400×g. The yellowish solution of MTT is removed and the blue formazan crystals formed at the cellular level are dissolved in 100 μl of DMSO. The microplates are then agitated for 5 minutes. The intensity of the resulting blue coloration, and thus of the conversion of the yellow MTT product into blue formazan by the cells that are still alive at the end of the experiment is quantified by spectrophotometry using a DYNATECH IMMUNOASSAY SYSTEM machine at wavelengths of 570 nm and 630 nm corresponding, respectively, to the maximum absorption wavelengths of formazan and to the background noise. Software built into the spectrophotometer calculates the average optical density values and also the standard deviation (Std. Dev.) and standard error of mean (SEM) values.
The inhibitory activity on the cell growth of the compounds of formula I and of formula II on the different tumor cell lines was compared with that of the natural product meridine (CRL 8348). All of the compounds of formula I and of formula II show significant inhibitory activity on the cell proliferation of the 12 human tumor lines: U-87MG, U-373MG, SW 1088, T24, J82, HCT-15, LoVo, MCF7, T-47D, A549, A-427 and PC-3 with an inhibitory concentration 50 (IC50) which is between 10^−6 M and 10^−10M, depending on the compounds and the tumor lines tested. By way of example, the values of the concentrations flanking the IC50 which are obtained on the various cell lines are given in table II: […]

For `O=C1c2ncccc2-c2nc3ccccc3c3ccnc1c23` [CRL 8299, Benzo[b]pyrido[4,3,2-de][1,7]phenanthroline-8-one], the MTD at 14 days [1] was 80 mg/kg, the IC50 (U-87MG) was < 0.1 nM and the IC50 [2] was 2.2 nM.
